Source: US11827628B2, “Compositions and methods for inhibition of the JAK pathway” (Rigel Pharmaceuticals, Inc., priority 2005, dated 2023)

Tested on: IL-4 stimulated expression of CD23 in human Ramos B cells (JAK-1 and JAK-3)
Experiment: Assay for Ramos B-Cell Line Stimulated with IL-4 (CD23 upregulation, FACS)
Format: cell-based
Conditions: Homo sapiens, Ramos, Ramos B cells stimulated with IL-4, CD23 expression by FACS; read-out: IC50, Example 41
Outline: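 Read-out is surface CD23 by FACS after anti-CD23-PE staining, giving IC50. Before this, cells were stimulated 20-24 h with 50 units/mL (final) human IL-4, following 1 h compound or vehicle pre-treatment at 37 °C; log-phase Ramos B cells, 5×10^4 per well in 5% serum RPMI.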

IC50 [nM]	Structure (SMILES)
602	CN1C(=O)C(C)(C)S(=O)(=O)c2ccc(Nc3nc(Nc4cccc(S(N)(=O)=O)c4)ncc3F)cc21 [VII-11, N2-(3-Aminosulphonylphenyl)-5-fluoro-N4-(2,2,4-trimethyl-1,1,3-trioxo-benzo[1,4]thiazin-6-yl)-2,4-pyrimidinediamine]
1030	COc1ccc(N(C)c2nc(Nc3ccc(C)c(S(N)(=O)=O)c3)ncc2F)cc1Cl [VI-19, N2-(3-Aminosulfonyl-4-methylphenyl)-N4-(3-chloro-4-methoxyphenyl)-5-fluoro-N4-methyl-2,4-pyrimidinediamine]
3010	CCCCNS(=O)(=O)c1cccc(Nc2ncc(F)c(Nc3ccc(F)c(Cl)c3)n2)c1 [VI-97, N2-(3-Butylaminosulfonylphenyl)-N4-(3-chloro-4-fluorophenyl)5-fluoro-2,4-pyrimidinediamine]
6650	COC(=O)[C@@H]1C[C@@H](Nc2nc(Nc3ccc(C)c(S(N)(=O)=O)c3)ncc2F)CN1C(=O)CC#N [VII-1, N2-(3-Aminosulfonyl-4-methylphenyl)-N4-[(2S,4R)-1-(2-cyanoacetyl)-2-methoxycarbonylpyrrolidin-4-yl]-5-fluoro-2,4-pyrimidinediamine]
597	CCCN(c1ccc(OC)c(Cl)c1)c1nc(Nc2cc(C)c(F)c(S(N)(=O)=O)c2)ncc1F [VI-23, N2-(3-Aminosulfonyl-4-fluoro-5-methylphenyl)-N4-(3-chloro-4-methoxyphenyl)-5-fluoro-N4-propyl-2,4-pyrimidinediamine]
3170	C#CCNS(=O)(=O)c1cccc(Nc2nc(Nc3cccc(S(N)(=O)=O)c3)ncc2F)c1 [VI-81, N2-(3-Aminosulfonylphenyl)-5-fluoro-N4-[3-(prop-2-ynylaminosulfonyl)phenyl]-2,4-pyrimidinediamine]
455	NC(=O)NCCc1ccc(Nc2nc(Nc3cccc(S(N)(=O)=O)c3)ncc2F)cc1 [VI-72, N4-{4-[2-(Aminocarbonylamino)ethyl]phenyl}-N2-(3-aminosulfonylphenyl)-5-fluoro-2,4-pyrimidinediamine]
240	CNS(=O)(=O)c1ccc(Nc2ncc(F)c(Nc3ccc(OC(F)(F)F)c(Cl)c3)n2)cc1OC [IX-53, N4-(3-Chloro-4-trifluoromethoxyphenyl)-5-fluoro-N2-[4-(N-methyl)aminosulfonyl-3-methoxyphenyl]-2,4-pyrimidinediamine]
93.2	NS(=O)(=O)c1ccc(Nc2ncc(F)c(Nc3cccc(-c4cnco4)c3)n2)cc1 [IV-3, N2-(4-Aminosulfonylphenyl)-5-fluoro-N4-[3-(1,3-oxazol-5-yl)phenyl]-2,4-pyrimidinediamine]
5800	CCC(=O)NS(=O)(=O)c1cccc(Nc2ncc(F)c(Nc3ccc(CCOC(=O)N(C)C)cc3)n2)c1 [VI-64, N4-{4-[2-(Dimethylaminocarbonyloxy)ethyl]phenyl}-5-fluoro-N2-(3-propionylaminosulfonylphenyl)-2,4-pyrimidinediamine]
3700	NS(=O)(=O)c1cccc(Nc2ncc(F)c(Nc3ccc(C(=O)N4CCS(=O)(=O)CC4)cc3)n2)c1 [IX-37, N2-(3-Aminosulfonylphenyl)-N4-[4-(1,1-dioxo-4-thiomorpholinyl)carbonylphenyl]-5-fluoro-2,4-pyrimidinediamine]
2670	CN1C(=O)CSc2ccc(N(CC#N)c3nc(Nc4ccc(S(N)(=O)=O)cc4)ncc3F)cc21 [VII-47, N2-(4-Aminosulphonylphenyl)-N4-cyanomethyl-5-fluoro-N4-[3-oxo-4-methyl-benzo[1,4]thiazin-6-yl]-2,4-pyrimidinediamine]

Same assay, conditions: Homo sapiens, Ramos, Ramos B-cell line stimulated with IL-4; CD23 expression by FACS; read-out: IC50, Example 41

IC50 [nM]	Structure (SMILES)
2210	Cc1cc(Nc2nc(Nc3ccc(C)c(S(N)(=O)=O)c3)ncc2F)ccc1OC1CCN(C)CC1 [II-5, N2-(3-Aminosulfonyl-4-methylphenyl)-5-fluoro-N4-{3-methyl-4-[(1-methylpiperidin-4-yl)oxy]phenyl}-2,4-pyrimidinediamine]
1050	NS(=O)(=O)c1cccc(Nc2ncc(F)c(Nc3ccc(OCC(=O)N4CCOCC4)cc3)n2)c1 [Compound I-211, N2-(3-Aminosulfonylphenyl)-5-fluoro-N4-[4-(2-morpholin-4-yl-2-oxo-ethoxy)phenyl]-2,4-pyrimidinediamine]

Same assay, conditions: Ramos B cells stimulated with IL-4, CD23 expression by FACS; read-out: IC50, Example 41

IC50 [nM]	Structure (SMILES)
397	CCNC(=O)NCc1cccc(Nc2nc(Nc3cccc(S(N)(=O)=O)c3)ncc2F)c1 [III-117, N2-(3-aminosulfonyl)phenyl-N4-(3-ethylaminocarbonylaminomethyl)phenyl-5-fluoro-2,4-pyrimidinediamine]
1590	Cc1cc(COc2ccc(Nc3nc(Nc4ccc5c(c4)S(=O)(=O)NC5=O)ncc3F)cc2)no1 [VIII-1, 5-Fluoro-N4-[4-(5-methylisoxazol-3-yl)methyleneoxyphenyl]-N2-(sacchrin-6-yl)-2,4-pyrimidinediamine]
4130	Cc1ccc(Nc2ncc(F)c(NC3CN(C(=O)CC#N)CCC3C)n2)cc1S(N)(=O)=O (racemic) [VII-5, Racemic N2-(3-aminosulfonyl-4-methylphenyl)-N4-(1-cyanomethylenecarbonyl-4-methylpiperidin-3-yl)-5-fluoro-2,4-pyrimidinediamine]
539	CCNC(=O)NCCc1ccc(Nc2nc(Nc3ccc(S(N)(=O)=O)cc3)ncc2F)cc1 [III-122, N2-(4-aminosulfonyl)phenyl-N4-[4-(2-ethylaminocarbonylamino)ethyl]phenyl-5-fluoro-2,4-pyrimidinediamine]
9910	CCOC(=O)CN(c1ccc(OC)c(Cl)c1)c1nc(Nc2ccc(C)c(S(N)(=O)=O)c2)ncc1C(=O)OCC [VI-25, N2-(3-Aminosulfonyl-4-methylphenyl)-5-carboethoxy-N4-(N-carboethoxymethylene-N-3-chloro-4-methoxyphenyl)-2,4-pyrimidinediamine]
2480	COc1ccc(Nc2ncc(F)c(Nc3ccc(CN4CCS(=O)(=O)CC4)cc3)n2)cc1S(N)(=O)=O [III-112, N2-(3-Aminosulfonyl-4-methyloxyphenyl)-5-fluoro-N4-{4-[(1,1-dioxothiomorpholin-4-yl-)methyl]phenyl}-2,4-pyrimidinediamine]
603	CN1C(=O)C(C)(C)Oc2ccc(Nc3nc(Nc4ccc(S(N)(=O)=O)cc4)ncc3F)nc21 [VII-43, N2-(4-Aminosulfonylphenyl)-N4-[2,2,4-trimethyl-3-oxo-5-pyrid[1,4]oxazin-5-yl]-5-fluoro-2,4-pyrimidinediamine]

Same assay, conditions: Ramos B-cell line stimulated with IL-4; CD23 expression by FACS; read-out: IC50, Example 41

Structure (SMILES)	IC50 [nM]
Cc1nc(COc2ccc(Nc3nc(Nc4cccc(S(=O)(=O)N5CCN(C)CC5)c4)ncc3F)cc2)no1 [Compound I-274, 5-Fluoro-N4-[4-(5-methyl-1,2,4-oxadiazol-3-yl)methoxy]phenyl-N2-[3-(4-methylpiperazin-1-yl)sulfonyl]phenyl-2,4-pyrimidinediamine]	1170
CN(C(=O)CC#N)c1ccc(Nc2nc(Nc3cccc(S(N)(=O)=O)c3)ncc2F)cc1 [Compound I-86, N2-(3-Aminosulfonylphenyl)-N4-[4-(N-cyanoacetyl-N-methyl)aminophneyl]-5-fluoro-2,4-pyrimidinediamine]	916
Cc1ccc(Nc2ncc(F)c(Nc3ccc(N(C)C(=O)CC#N)cc3)n2)cc1S(N)(=O)=O [Compound I-87, N2-(3-Aminosulfonyl-4-methylphenyl)-N4-[4-(N-cyanoacetyl-N-methyl)aminophneyl]-5-fluoro-2,4-pyrimidinediamine]	1040
NS(=O)(=O)c1cccc(Nc2ncc(F)c(Nc3ccc(OCCN4CCOCC4)cc3)n2)c1 [Compound I-206]	726
CN1CCN(S(=O)(=O)c2cccc(Nc3ncc(F)c(Nc4cccc(OCC(N)=O)c4)n3)c2)CC1 [Compound I-89, N4-(3-Aminocarbonylmethoxy)phenyl-5-fluoro-N2-[3-(4-methylpiperazin-1-yl)sulfonyl]phenyl-2,4-pyrimidinediamine]	5500
CNS(=O)(=O)c1cc(Nc2ncc(F)c(Nc3ccc(Oc4cccnc4)cc3)n2)ccc1C [II-13, 5-Fluoro-N2-[3-N-(methylaminosulfonyl)-4-methylphenyl]-N4-[4-(3-pyridyloxy)phenyl]-2,4-pyrimidinediamine]	323
COc1cc(Nc2nc(Nc3cccc(S(N)(=O)=O)c3)ncc2F)ccc1NC(=O)CC#N [Compound I-84, N2-(3-Aminosulfonylphenyl)-5-fluoroN4-[3-methoxy-4-(N-cyanoacetyl)aminophneyl]-2,4-pyrimidinediamine]	1400
NC(=O)COc1ccc(Nc2nc(Nc3ccc(S(N)(=O)=O)cc3)ncc2F)cc1 [Compound I-115, N4-(4-Aminocarbonylmethoxy)phenyl-N2-(4-aminosulfonyl)phenyl-5-fluoro-2,4-pyrimidinediamine]	793
Cc1cc(COc2ccc(N(C)c3nc(Nc4ccc(C)c(S(N)(=O)=O)c4)ncc3F)cc2)no1 [Compound I-225, N2-(3-Aminosulfonyl-4-methylphenyl)-5-fluoro-N4-methyl-N4-[4-(5-methylisoxazol-3-yl)methyleneoxyphenyl]-2,4-pyrimidinediamine]	700
NC(=O)COc1ccc(Nc2nc(Nc3cccc(S(N)(=O)=O)c3)ncc2F)cc1 [Compound I-111, N4-(4-Aminocarbonylmethoxy)phenyl-N2-(3-aminosulfonyl)phenyl-5-fluoro-2,4-pyrimidinediamine]	890

More lines, now with the values ahead:

IC50 [nM]	Structure (SMILES)
397	Cc1cc(CCC#N)ccc1Nc1nc(Nc2ccc(C)c(S(N)(=O)=O)c2)ncc1F [III-23, N2-(3-Aminosulfonyl-4-methylphenyl)-N4-(4-cyanoethylene-2-methylphenyl)-5-fluoro-2,4-pyrimidinediamine]
1080	CCC(=O)NCc1ccc(Nc2nc(Nc3ccc(S(N)(=O)=O)cc3)ncc2F)cc1 [III-35, N2-(4-aminosulfonyl)phenyl-N4-(4-ethylcarbonylaminomethyl)phenyl-5-fluoro-2,4-pyrimidinediamine]
